The values below come from patent publication US20230357193A1, “COMPOUND CAPABLE OF INHIBITING AND DEGRADING ANDROGEN RECEPTORS, AND PHARMACEUTICAL COMPOSITIONS AND PHARMACEUTICAL USES THEREOF” (Sichuan Haisco Pharmaceutical Co., Ltd., priority 2020, published 2023).

Read-outs that look alike come from different tables or passages of the source.

Data set [1] concerns Prostate cancer cells VCaP. The data set is described as follows: Experiment on inhibiting VCaP cell proliferation (CellTiter-Glo, with 0.1 nM R1881). The following applies: Homo sapiens, 168 h, read-out: GI50 for inhibition of VCaP cells. It counts as cell-based. The method, then:
Prostate cancer cells VCaP were purchased from ATCC, the cell medium was 1640 + 10% FBS, and the cells were cultured in an incubator at 37° C. under 5% CO2. On day 1, the cells in an exponential phase were collected. With a 1% css-FBS phenol red-free medium, the cell suspension was adjusted to a corresponding concentration, plated into T0 wells at 7500 cells/well and incubated for 3 days. After the incubation was completed, R1881 at a final concentration of 0.1 nM and compounds at different concentrations were added, and the plate was placed in the incubator and incubated for another 7 days. On the day of the addition, T0 plate was detected using a CellTiter-Glo kit and recorded as RLU0. After the incubation was completed, 100 µL of mediums was pipetted from each well. According to operation instructions for a CellTiter-Glo kit (Promega, G7573), 50 µL of CellTiter-Glo reagents, which were already pre-melted and equilibrated to room temperature, were then added to each well, and the mixtures were uniformly mixed for 2 min using a microplate shaker. The plate was placed at room temperature for 10 min, and then […] signal values were measured using a microplate reader (PHERAstar FSX). The results were processed according to formula (1), the inhibition rate of the compound at different concentrations was calculated, and the GI50 value of the compound with an inhibition rate of 50% was calculated using origin9.2 software, wherein RLU compound was the readout of the treated group, and RLUcontrol was the average value of the solvent control group.
A general note: Cellular ATP, detected with luciferase, serves as a proxy for viable cell number.

A short description of data set [2]: Pharmacokinetic experiment in rats. The format is in vivo. To be noted: male SD rats, i.g. 20 mg/kg. The method, then:
Objective: in this experiment, a single dose of each test compound was administered to SD rats intravenously and intragastrically, the concentrations of the test compound in plasma of rats were measured, and the pharmacokinetic characteristics and bioavailability of the test compound in rats were evaluated.
Experimental animals: male SD rats, 200-250 g, 6-8 weeks old, 6 rats/compound, purchased from CHENGDU DOSSY EXPERIMENTAL ANIMALS CO., LTD.
Experimental method: on the day of the experiment, six SD rats were randomly grouped according to their body weights. The animals were fasted but with water available for 12 to 14 hours one day before the administration, and were fed 4 h after the administration.
Sampling: before and after the administration, 0.1 mL of blood was taken from the orbit of the rats under isoflurane anesthesia and placed in an EDTAK2 centrifuge tube. Centrifugation was carried out at 5000 rpm at 4° C. for 10 min, and the plasma was collected.
Time points for plasma collection in G1 and G2 groups: 0, 5 min, 15 min, 30 min, 1 h, 2 h, 4 h, 6 h, 8 h, and 24 h.
Before analysis and detection, all samples were stored at -80° C. The samples were analyzed quantitatively by LC-MS/MS.

The subject of data set [3] is Prostate cancer cells 22RV1. Kind of data set: Experiment on inhibiting 22RV1 cell proliferation (CellTiter-Glo). It counts as cell-based. The following applies: Homo sapiens, 168 h, 22RV1 cells, 7 days incubation, read-out: IC50 for inhibition of 22RV1 cells. The method, then:
Prostate cancer cells 22RV1 were purchased from ATCC, the cell medium was RPMI 1640 + 10% FBS, and the cells were cultured in an incubator at 37° C. under 5% CO2. On day 1, the cells in an exponential phase were collected. With a 1% css-FBS phenol red-free medium, the cell suspension was adjusted to a corresponding concentration, plated at 2000 cells/well and incubated overnight. On day 2, compounds at different concentrations were added, and the plate was placed in the incubator and incubated for another 7 days. After the incubation was completed, according to operation instructions for a CellTiter-Glo kit (Promega, G7573), 50 µL of CellTiter-Glo reagents, which were already pre-melted and equilibrated to room temperature, were added to each well, and the mixtures were uniformly mixed for 2 min using a microplate shaker. The plate was placed at room temperature for 10 min, and then […] signal values were measured using a microplate reader (PHERAstar FSX). The results were processed according to formula (2), the inhibition rate of the compound at different concentrations was calculated, and the IC50 value of the compound with an inhibition rate of 50% was calculated using origin9.2 software with DoseResp function, wherein RLUcompound was the readout of the treated group, and RLUcontrol was the average value of the DMSO solvent control group.

The mark [4] stands for this setting: VCaP cells, 0.1 nM R1881, 7 days incubation, CellTiter-Glo.

By GI50 is commonly meant the concentration giving 50% growth inhibition. For the compound `CC(C)(C(=O)Nc1ccc(C#N)c(C(F)(F)F)c1)n1cc(C2CCN(CC3CCN(c4ccc5c(c4)C(=O)N(C4CCC(=O)NC4=O)C5=O)C3)CC2)cn1` (stereo not shown) [Compound 2, N-(4-cyano-3-(trifluoromethyl)phenyl)-2-(4-(1-((1-(2-(2,6-dioxopiperidin-3-yl)-1,3-dioxoisoindolin-5-yl)pyrrolidin-3-yl)methyl)piperidin-4-yl)-1H-pyrazol-1-yl)-2-methylpropanamide], the 50% growth inhibitory concentration (GI50) in data set [1] (setting [4]) stood at 4790 nM.

Consider `CC(C)(C(=O)Nc1ccc(C#N)c(C(F)(F)F)c1)n1cc(C2CCN(C3CCC4(CC3)CN(c3ccc5c(c3)C(=O)N(C3CCC(=O)NC3=O)C5=O)C4)CC2)cn1` (stereo not shown) [Compound 3, N-(4-cyano-3-(trifluoromethyl)phenyl)-2-(4-(1-(2-(2-(2,6-dioxopiperidin-3-yl)-1,3-dioxoisoindolin-5-yl)-2-azaspiro[3.5]nonan-7-yl)piperidin-4-yl)-1H-pyrazol-1-yl)-2-methylpropanamide], for which the GI50 in data set [1] (setting [4]) amounted to 3090 nM.

For the compound `N#Cc1ccc(NC(=O)C2(n3cc(C4CCN(CC5CCN(c6ccc7c(c6)C(=O)N(C6CCC(=O)NC6=O)C7=O)C5)CC4)cn3)CCC2)cc1C(F)(F)F` (stereo not shown) [Compound 4], the GI50 in data set [1] (setting [4]) amounted to 1810 nM.

Take `CC(C)(C(=O)Nc1ccc(C#N)c(C(F)(F)F)c1)n1cc(C2CCN(c3ccc4c(c3)C(=O)N(C3CCC(=O)NC3=O)C4=O)CC2)cn1` (stereo not shown) [Compound 5, N-(4-cyano-3-(trifluoromethyl)phenyl)-2-(4-(1-(2-(2,6-dioxopiperidin-3-yl)-1,3-dioxoisoindolin-5-yl)piperidin-4-yl)-1H-pyrazol-1-yl)-2-methylpropanamide]: in data set [1] (setting [4]), the GI50 turned out to be 1910 nM.

Turning to `N#Cc1ccc(NC(=O)C2(n3cc(C#CC4CN(C5CN(c6ccc7c(c6)C(=O)N(C6CCC(=O)NC6=O)C7=O)C5)C4)cn3)CCC2)cc1C(F)(F)F` (stereo not shown) [Compound 6, N-[4-cyano-3-(trifluoromethyl)phenyl]-1-[4-[2-[1-[1-[2-(2,6-dioxo-3-piperidyl)-1,3-dioxo-isoindolin-5-yl]azetidin-3-yl]azetidin-3-yl]ethynyl]pyrazol-1-yl]cyclobutanecarboxamide], the GI50 in data set [1] (setting [4]) stood at 1690 nM.

In the case of `N#Cc1ccc(NC(=O)C2(n3cc(C#CC4CN(c5ccc6c(c5)C(=O)N(C5CCC(=O)NC5=O)C6=O)C4)cn3)CCC2)cc1C(F)(F)F` (stereo not shown) [Compound 7, N-[4-cyano-3-(trifluoromethyl)phenyl]-1-[4-[2-[1-[2-(2,6-dioxo-3-piperidyl)-1,3-dioxo-isoindolin-5-yl]azetidin-3-yl]ethynyl]pyrazol-1-yl]cyclobutanecarboxamide], the 50% growth inhibitory concentration (GI50) in data set [1] (setting [4]) is 470 nM.

`CC(C)(C(=O)Nc1ccc(C#N)c(C(F)(F)F)c1)n1cc(C#CC2CN(C3CN(c4ccc5c(c4)C(=O)N(C4CCC(=O)NC4=O)C5=O)C3)C2)cn1` (stereo not shown) [Compound 8, N-(4-cyano-3-(trifluoromethyl)phenyl)-2-(4-((1′-(2-(2,6-dioxopiperidin-3-yl)-1,3-dioxoisoindolin-5-yl)-[1,3′-biazetidin]-3-yl)ethynyl)-1H-pyrazol-1-yl)-2-methylpropanamide]: the GI50 in data set [1] (setting [4]) was found to be 3960 nM.

In general, AUC(0-t) refers to the area under the concentration-time curve up to a stated or last time point. A lower AUC(0-t) goes with less exposure. As usually defined, the half-life is the time in which the quantity being followed falls by half. A higher half-life goes with slow loss. For orientation: IC50 means the midpoint of a concentration-inhibition curve. In the case of `CC(C)(C(=O)Nc1ccc(C#N)c(C(F)(F)F)c1)n1cc(C#CC2CN(c3ccc4c(c3)C(=O)N(C3CCC(=O)NC3=O)C4=O)C2)cn1` (stereo not shown) [Compound 9, N-(4-cyano-3-(trifluoromethyl)phenyl)-2-(4-((1-(2-(2,6-dioxopiperidin-3-yl)-1,3-dioxoisoindolin-5-yl)azetidin-3-yl)ethynyl)-1H-pyrazol-1-yl)-2-methylpropanamide], the Oral bioavailability entry in data set [2] is on record as “Yes”. In data set [2] (rat, po, plasma), this compound had an AUC(0-t) of 45600 ± 3720 ng·h/mL and a half-life of 24 ± 10 h. In addition, the GI50 in data set [1] (VCaP) was determined as 180 nM. The concentration for half-maximal inhibition (IC50) in data set [3] came out at 78 nM.

`CC(C)(C(=O)Nc1ccc(C#N)c(C(F)(F)F)c1)n1cc(C#CC2CCN(c3ccc4c(c3)C(=O)N(C3CCC(=O)NC3=O)C4=O)CC2)cn1` (stereo not shown) [Compound 10, N-(4-cyano-3-(trifluoromethyl)phenyl)-2-(4-((1-(2-(2,6-dioxopiperidin-3-yl)-1,3-dioxoisoindolin-5-yl)piperidin-4-yl)ethynyl)-1H-pyrazol-1-yl)-2-methylpropanamide]: the GI50 in data set [1] (setting [4]) was determined as 330 nM.
